Patent US8835421B2, “Benzimidazole linked pyrrolo[2,1-c[1,4] benzodiazepine hybrids as potential antitumour agents and process for the preparation thereof” (Council of Scientific and Industrial Research, priority 2008, dated 2014)

Experiments:
[1] = tested on: calf thymus DNA (CT-DNA); test: Thermal denaturation studies with duplex-form calf thymus DNA; format: binding; conditions: [PBD]:[DNA] 1:5, CT-DNA 100 μM, ligand 20 μM, sodium phosphate buffer pH 7.00; for ΔTm after incubation at 37° C. for 0 h: 0 h incubation at 37° C.; for ΔTm after incubation at 37° C. for 18 h: 18 h incubation at 37° C.
Description: Compounds have been subjected to thermal denaturation studies with duplex-form calf thymus DNA (CT-DNA) using an modification of a reported procedure (Newman, M. S. Carcinog-compr. Surv. 1976, 1, 203; (b) Hecht, S. S.; Loy, M.; Hoffman, Carcinog-compr. Surv. 1976, 1, 325). Working solutions in aqueous buffer (10 mM NaH2PO4/Na2HPO4, 1 mM Na2EDTA, pH 7.00+0.01) containing CT-DNA (100 μm in phosphate) and the PBD (20 μm) have been prepared by addition of concentrated PBD solutions in DMSO to obtain a fixed [PBD]/[DNA] molar ratio of 1:5. The DNA-PBD solutions have been incubated at 37° C. for 0 and 18 h prior to analysis. Samples have been, monitored at 260 nm using a Beckman DU-800 spectrophotometer fitted with high performance temperature controller, and heated at 1° C. min^−1 in the 40-110° C. range. DNA helix→coil transition temperatures (Tm) have been obtained from the maxima in the d(A260)/d T derivative plots. Drug-induced alterations in DNA melting behavior are given by: ΔTm=Tm(DNA+PBD)−Tm(DNA alone), where the Tm value for the PBD-free CT-DNA is 69.1±0.01.
The DNA binding activity for these novel C8-linked benzimidazole-PBD hybrids has been examined by thermal denaturation studies using calf thymus (CT) DNA. […] The data for the compounds 8a-g, 11a-d and 14 is included in Table 1 for comparison.

[2] = tested on: Leukemia cancer cell lines; test: NCI in vitro anticancer screen (SRB, 48 h), leukemia; format: cell-based, human; conditions: average of six to nine cell lines; for GI50: Homo sapiens, read-out: Log10 GI50 (converted)
Description: (§1) Anticancer activity: In vitro biological activity studies were carried out at the National Cancer Institute (USA).
(§2) The compounds were evaluated for in vitro anticancer activity against sixty human tumour cells derived from nine cancer types (leukemia, non-small-cell lung, colon, CNS, melanoma, ovarian, prostate, and breast cancer) as shown in Table 3. For each compound, dose response curves for each cell line were measured at a minimum of five concentrations at 10 fold dilutions. A protocol of 48 h continuous drug exposure was used and a sulforhodamine B (SRB) protein assay was used to estimate cell viability or growth. The concentration causing 50% cell growth inhibition (GI50), total cell growth inhibition (TGI 0% growth) and 50% cell death (LC50, −50% growth) compared with the control was calculated. The mean graph midpoint values of log10 TGI and log10 LC50 as well as log10 GI50 for 8c, 8e, 11a, 11c and 14 are listed in Table 2.
(§3) Each cancer type represents the average of six to nine different cancer cell lines.

[3] = tested on: Melanoma cancer cell lines; test: NCI in vitro anticancer screen (SRB, 48 h), melanoma; format: cell-based, human; conditions: average of six to nine cell lines; for GI50: Homo sapiens, read-out: Log10 GI50 (converted)
Description: as §1, §2, §3

[4] = tested on: Ovarian cancer cell lines; test: NCI in vitro anticancer screen (SRB, 48 h), ovarian; format: cell-based, human; conditions: average of six to nine cell lines; for GI50: Homo sapiens, read-out: Log10 GI50 (converted)
Description: as §1, §2, §3

[5] = tested on: CNS cancer cell lines; test: NCI in vitro anticancer screen (SRB, 48 h), CNS; format: cell-based, human; conditions: average of six to nine cell lines; for GI50: Homo sapiens, read-out: Log10 GI50 (converted)
Description: as §1, §2, §3

[6] = tested on: Prostate cancer cell lines; test: NCI in vitro anticancer screen (SRB, 48 h), prostate; format: cell-based, human; conditions: average of six to nine cell lines; for GI50: Homo sapiens, read-out: Log10 GI50 (converted)
Description: as §1, §2, §3

[7] = tested on: Breast cancer cell lines; test: NCI in vitro anticancer screen (SRB, 48 h), breast; format: cell-based, human; conditions: average of six to nine cell lines; for GI50: Homo sapiens, read-out: Log10 GI50 (converted)
Description: as §1, §2, §3

[8] = tested on: sixty human tumour cells; test: NCI in vitro anticancer screen (SRB, 48 h), mean graph midpoints over all cell lines; format: cell-based; conditions: 48 h continuous drug exposure, SRB assay; for Log10LC50 mean graph midpoint (MG_MID): 50% cell death; for Log10GI50 mean graph midpoint (MG_MID): 50% cell growth inhibition; for Log10TGI mean graph midpoint (MG_MID): total cell growth inhibition
Description: as §1, §2

[9] = tested on: Non-small-cell-lung cancer cell lines; test: NCI in vitro anticancer screen (SRB, 48 h), non-small-cell lung; format: cell-based, human; conditions: average of six to nine cell lines; for GI50: Homo sapiens, read-out: Log10 GI50 (converted)
Description: as §1, §2, §3

[10] = tested on: Colon cancer cell lines; test: NCI in vitro anticancer screen (SRB, 48 h), colon; format: cell-based, human; conditions: average of six to nine cell lines; for GI50: Homo sapiens, read-out: Log10 GI50 (converted)
Description: as §1, §2, §3

[11] = tested on: Renal cancer cell lines; test: NCI in vitro anticancer screen (SRB, 48 h), renal; format: cell-based, human; conditions: average of six to nine cell lines; for GI50: Homo sapiens, read-out: Log10 GI50 (converted)
Description: as §1, §2, §3

Row | Compound | ΔTm after incubation at 37° C. for 0 h [1] | ΔTm after incubation at 37° C. for 18 h [1] | Log10LC50 mean graph midpoint (MG_MID) [8] | Log10GI50 mean graph midpoint (MG_MID) [8] | Log10TGI mean graph midpoint (MG_MID) [8] | further results
1 | COc1cc2c(cc1OCCCCn1c(-c3ccco3)nc3ccccc31)N=C[C@@H]1CCCN1C2=O [Compound 8b, 7-Methoxy-8-{4-[2-(2-furyl)-1H-benzimidazol-1-yl]butyl}oxy-(11aS)-1,2,3,11a-tetrahydro-5H-pyrrolo[2,1-c][1,4]benzodiazepin-5-one] | 0.1 °C | 1.0 °C |  |  |  | 
2 | COc1cc2c(cc1OCCCCn1c(-c3cccs3)nc3ccccc31)N=C[C@@H]1CCCN1C2=O [Compound 8e, 7-Methoxy-8-{4-[2-(2-thienyl)-1H-benzimidazol-1-yl]butyl}oxy-(11aS)-1,2,3,11a-tetrahydro-5H-pyrrolo[2,1-c][1,4]benzodiazepin-5-one] | 0.1 °C | 1.0 °C | −4.51 | −5.81 | −5.18 | GI50 [2]: 1000 nM; GI50 [3]: 1580 nM; GI50 [4]: 2000 nM; GI50 [5]: 1580 nM; GI50 [6]: 1320 nM; GI50 [7]: 912 nM; GI50 [9]: 2090 nM; GI50 [10]: 1950 nM; GI50 [11]: 1580 nM
3 | COC(=O)c1ccc2nc(-c3cn(C)c4ccccc34)n(CCCCOc3cc4c(cc3OC)C(=O)N3CCC[C@H]3C=N4)c2c1 [Compound 14, Methyl-1-[(4-(11aS)-7-methoxy-1,2,3,11a-tetrahydro-5H-pyrrolo[2,1-c][1,4]benzodiazepin-5-one-8-yl)oxybutyl]-2-(1-methyl-3-indolyl)benzimidazol-6-carboxylate] | 1.5 °C | 2.0 °C | −4.92 | −6.19 | −5.65 | Log10 GI50 [2]: −6.88 mol/L; Log10 GI50 [3]: −6.27 mol/L; Log10 GI50 [4]: −6.04 mol/L; Log10 GI50 [5]: −6.00 mol/L; Log10 GI50 [6]: −6.62 mol/L; Log10 GI50 [7]: −6.14 mol/L; Log10 GI50 [9]: −6.08 mol/L; Log10 GI50 [10]: −6.04 mol/L; Log10 GI50 [11]: −6.10 mol/L
4 | COc1cc2c(cc1OCCCn1c(-c3ccccn3)nc3ccccc31)N=C[C@@H]1CCCN1C2=O [Compound 11a, 7-Methoxy-8-{3-[2-(2-pyridyl)-1H-benzimidazol-1-yl]propyl}oxy-(11aS)-1,2,3,11a-tetrahydro-5H-pyrrolo[2,1-c][1,4]benzodiazepin-5-one] | 3.0 °C | 4.2 °C | −4.42 | −5.75 | −5.14 | GI50 [2]: 3090 nM; GI50 [3]: 2190 nM; GI50 [4]: 1620 nM; GI50 [5]: 2510 nM; GI50 [6]: 1350 nM; GI50 [7]: 1050 nM; GI50 [9]: 1580 nM; GI50 [10]: 1910 nM; GI50 [11]: 1410 nM
5 | COc1cc2c(cc1OCCCCCn1c(-c3ccc(OCc4ccccc4)cc3)nc3ccc(N4CCOCC4)cc31)N=C[C@@H]1CCCN1C2=O [Compound 11c, 7-Methoxy-8-{5-[2-[(4-(benzyloxy)phenyl)-6-morpholino]benzimidazol-1-yl]pentyl}oxy-(11aS)-1,2,3,11a-tetrahydro-5H-pyrrolo[2,1-c][1,4]benzodiazepin-5-one] | 2.9 °C | 3.2 °C | −4.24 | −5.83 | −5.00 | GI50 [2]: 603 nM; GI50 [3]: 1550 nM; GI50 [4]: 2190 nM; GI50 [5]: 2690 nM; GI50 [6]: 2190 nM; GI50 [7]: 1550 nM; GI50 [9]: 1950 nM; GI50 [10]: 2290 nM; GI50 [11]: 759 nM
6 | COc1cc2c(cc1OCCCn1c(-c3ccco3)nc3ccccc31)N=C[C@@H]1CCCN1C2=O [Compound 8a, 7-Methoxy-8-{3-[2-(2-furyl)-1H-benzimidazol-1-yl]propyl}oxy-(11aS)-1,2,3,11a-tetrahydro-5H-pyrrolo[2,1-c][1,4]benzodiazepin-5-one] | 5.1 °C | 6.1 °C |  |  |  | 
7 | COc1cc2c(cc1OCCCn1c(-c3cccn3C)nc3ccccc31)N=C[C@@H]1CCCN1C2=O [Compound 8g, 7-Methoxy-8-{3-[2-(1-Methyl-2-pyrrolyl)-1H-benzimidazol-1,4]propyl}-oxy-(11aS)-1,2,3,11a-tetrahydro-5H-pyrrolo[2,1-c][1,4]benzodiazepin-5-one] | 2.0 °C | 3.1 °C |  |  |  | 
8 | COc1cc2c(cc1OCCCCCn1c(-c3cccs3)nc3ccccc31)N=C[C@@H]1CCCN1C2=O [Compound 8f, 7-Methoxy-8-{5-[2-(2-thienyl)-1H-benzimidazol-1-yl]pentyl}oxy-(11aS)-1,2,3,11a-tetrahydro-5H-pyrrolo[2,1-c][1,4]benzodiazepin-5-one] | 6.1 °C | 6.1 °C |  |  |  | 
9 | CCOC(=O)c1ccc2nc(-c3ccc(OCc4ccccc4)cc3)n(CCCCCOc3cc4c(cc3OC)C(=O)N3CCC[C@H]3C=N4)c2c1 [Compound 11d, Ethyl-2-[4-(benzyloxy)phenyl]-[(5-(11aS)-7-methoxy-1,2,3,11a-tetrahy-dro-5H-pyrrolo[2,1-c][1,4]benzodiazepin-5-one-8-yl)oxypentyl]-2-benzimidazol-6-carboxylate] | 2.0 °C | 3.0 °C |  |  |  | 
10 | COc1cc2c(cc1OCCCn1c(-c3cccs3)nc3ccccc31)N=C[C@@H]1CCCN1C2=O [Compound 8d, 7-Methoxy-8-{3-[2-(2-thienyl)-1H-benzimidazol-1-yl]propyl}oxy-(11aS)-1,2,3,11a-tetrahydro-5H-pyrrolo[2,1-c][1,4]benzodiazepin-5-one] | 3.9 °C | 5.1 °C |  |  |  | 
11 | COc1cc2c(cc1O)N=CC1CCCN1C2=O (stereo not drawn) [DC-81, reference compound] | 0.3 °C | 0.7 °C |  |  |  | 
12 | COc1cc2c(cc1OCCCCCn1c(-c3ccccn3)nc3ccccc31)N=C[C@@H]1CCCN1C2=O [Compound 11b, 7-Methoxy-8-{5-[2-(2-pyridyl)-1H-benzimidazol-1-yl]pentyl}oxy-(11aS)-1,2,3,11a-tetrahydro-5H-pyrrolo[2,1-c][1,4]benzodiazepin-5-one] | 1.0 °C | 1.2 °C |  |  |  | 
